Regarding `O=C(NCCCc1ccncc1)N(CCC12CC3CC(CC(C3)C1)C2)CC(F)(F)F` [Compound No. 1-114, 1-[2-(1-Adamantyl)ethyl]-3-[3-(4-pyridyl)propyl]-1-(2,2,2-trifluoroethyl)urea], the melting point (in general, the temperature of the solid-liquid transition) lay in the range of 106.2 to 107.3 °C.
The result for `CN(CCC12CC3CC(CC(C3)C1)C2)C(=O)NCCCc1ccncc1` [Compound No. 1-40, 1-[2-(1-Adamantyl)ethyl]-1-methyl-3-[3-(4-pyridyl)propyl]urea] reads 99 to 109 °C.
The compound `CCCCCN(CCC12CC3CC(CC(C3)C1)C2)C(=O)NCCCc1ccnc2ccccc12` [Compound No. 1-91, 1-[2-(1-Adamantyl)ethyl]-1-pentyl-3-[3-(4-quinolyl)propyl]urea] gave a melting point of 80.2 to 102 °C.
The result for `CN(CCN(CCC12CC3CC(CC(C3)C1)C2)C(=O)NCCCc1ccncc1)S(C)(=O)=O` [Compound No. 10-4, 1-[2-(1-Adamantyl)ethyl]-1-[2-[N-methyl-N-(methylsulfonyl)amino]ethyl]-3-[3-(4-pyridyl)propyl]urea] reads 164.9 to 167.2 °C; that for `CCCCCN(CCc1ccccc1)C(=O)NCC(C)Cc1ccncc1` (centres unmarked) [Compound No. 1-115, 3-[2-Methyl-3-(4-pyridyl)propyl]-1-pentyl-1-phenethylurea], 49 to 50 °C.
The result for `C=C(C)CN(CCC12CC3CC(CC(C3)C1)C2)C(=O)NCCCc1ccncc1` [Compound No. 1-33, 1-[2-(1-Adamantyl)ethyl]-1-(2-methyl-2-propenyl)-3-[3-(4-pyridyl)propyl]urea] reads 108 to 109 °C; that for `CCN(CCC12CC3CC(CC(C3)C1)C2)C(=O)NCCCc1ccncc1` [Compound No. 1-41, 1-[2-(1-Adamantyl)ethyl]-1-ethyl-3-[3-(4-pyridyl)propyl]urea], 106 to 115 °C.
The result for `CCCN(CCC12CC3CC(CC(C3)C1)C2)C(=O)NCCCc1ccncc1` [Compound No. 1-16, 1-[2-(1-Adamantyl)ethyl]-1-propyl-3-[3-(4-pyridyl)propyl]urea] reads 99 to 103 °C; that for `CCCCCN(CCC12CC3CC(CC(C3)C1)C2)C(=O)NCC(C)(C)Cc1ccncc1` [Compound No. 1-135, 1-[2-(1-Adamantyl)ethyl]-3-[2,2-dimethyl-3-(4-pyridyl)propyl]-1-pentylurea], 82.5 to 84.9 °C; that for `CCCCCN(CCC12CC3CC(CC(C3)C1)C2)C(=O)NCCc1ccc(O)cc1`, 96.3 to 99.4 °C.
`CC(C)(C)OC(=O)NCCN(CCC12CC3CC(CC(C3)C1)C2)C(=O)NCCCc1ccncc1` [Compound No. 10-8, 1-[2-(1-Adamantyl)ethyl]-1-[2-[N-(t-butoxycarbonyl)amino]ethyl]-3-[3-(4-pyridyl)propyl]urea]: the melting point is 158 to 160.5 °C.
`CCCCCN(CCC12CC3CC(CC(C3)C1)C2)C(=O)NCCc1cccnc1` [Compound No. 1-76, 1-[2-(1-Adamantyl)ethyl]-1-pentyl-3-[2-(3-pyridyl)ethyl]urea] yielded a melting point of 112.5 to 114.5 °C.
The compound `CC(C)(C)OC(=O)CCN(CCC12CC3CC(CC(C3)C1)C2)C(=O)NCCCc1ccncc1` [Compound No. 1-69, 1-[2-(1-Adamantyl)ethyl]-1-[2-(t-butoxycarbonyl)ethyl]-3-[3-(4-pyridyl)propyl]urea] gave a melting point of 124.5 to 127 °C.
Next, `CCCCCN(CCC12CC3CC(CC(C3)C1)C2)C(=O)CNCCc1ccncc1.Cl.Cl`: 133.7 to 137 °C; `CCCCCN(CCC12CC3CC(CC(C3)C1)C2)C(=O)NCC(Cc1ccncc1)Cc1ccncc1` [Compound No. 1-110, 1-[2-(1-Adamantyl)ethyl]-3-[2,2-bis(4-pyridylmethyl)ethyl]-1-pentylurea]: 124 to 136 °C; `CCCCCN(CCC1CCCCC1)C(=O)NCc1ccncc1` [Compound No. 1-52, 1-(2-Cyclohexylethyl)-1-pentyl-3-(4-pyridyl)methylurea]: 64.7 to 65.8 °C.
The result for `CCCCCCN(CCC12CC3CC(CC(C3)C1)C2)C(=O)NCCCc1ccncc1` [Compound No. 1-29, 1-[2-(1-Adamantyl)ethyl]-1-hexyl-3-[3-(4-pyridyl)propyl]urea] reads 119.5 to 121.5 °C; that for `O=C(NCCCc1ccncc1)N(CCCCC(F)(F)F)CCC12CC3CC(CC(C3)C1)C2` [Compound No. 1-106, 1-[2-(1-Adamantyl)ethyl]-3-[3-(4-pyridyl)propyl]-1-(5,5,5-trifluoropentyl)urea], 116.9 to 118.9 °C; that for `O=C(NCCCc1ccncc1)N(CCC12CC3CC(CC(C3)C1)C2)C1CC1` [Compound No. 1-19, 1-[2-(1-Adamantyl)ethyl]-1-cyclopropyl-3-[3-(4-pyridyl)propyl]urea], 108 to 115.5 °C.
Next, `Cl.O=C1CCN(CCC2CCCCC2)C(=O)N1Cc1ccncc1`: 64 to 74.5 °C; `CCCCCN(CCC12CC3CC(CC(C3)C1)C2)C(=O)NCCCCc1ccncc1` [Compound No. 1-87, 1-[2-(1-Adamantyl)ethyl]-1-pentyl-3-[4-(4-pyridyl)butyl]urea]: 74.1 to 78.1 °C.
In turn, `CC(CNC(=O)N(CCC(F)(F)F)CCC12CC3CC(CC(C3)C1)C2)Cc1ccncc1` (centres unmarked) [Compound No. 1-117, 1-[2-(1-Adamantyl)ethyl]-3-[2-methyl-3-(4-pyridyl)propyl]-1-(3,3,3-trifluoropropyl)urea] yielded a melting point of 81.1 to 84.1 °C.
The result for `CCCN(CCCC12CC3CC(CC(C3)C1)C2)C(=O)NCc1ccncc1` [Compound No. 1-128, 1-[3-(1-Adamantyl)propyl]-1-propyl-3-(4-pyridyl)methylurea] reads 96 to 98 °C.
The result for `C=CCN(CCC12CC3CC(CC(C3)C1)C2)C(=O)NCCCc1ccncc1` [Compound No. 1-23, 1-[2-(1-Adamantyl)ethyl]-1-allyl-3-[3-(4-pyridyl)propyl]urea] reads 99 to 102 °C.
Next, `CCCCCN(CCC12CC3CC(CC(C3)C1)C2)C(=O)NCCCc1ccccn1` [Compound No. 1-83, 1-[2-(1-Adamantyl)ethyl]-1-pentyl-3-[3-(2-pyridyl)propyl]urea]: 84.4 to 85.7 °C.
In the case of `CCN(CCCCC12CC3CC(CC(C3)C1)C2)C(=O)NCCCc1ccncc1` [Compound No. 1-124, 1-[4-(1-Adamantyl)butyl]-1-ethyl-3-[3-(4-pyridyl)propyl]urea], the melting point was 92.7 to 93.7 °C.
The result for `C#CCN(CCC12CC3CC(CC(C3)C1)C2)C(=O)NCCCc1ccncc1` [Compound No. 1-17, 1-[2-(1-Adamantyl)ethyl]-1-(2-propynyl)-3-[3-(4-pyridyl)propyl]urea] reads 152 to 154 °C; that for `CCCCCN(CCC12CC3CC(CC(C3)C1)C2)C(=O)NCC(CC)Cc1ccncc1` (centres unmarked) [Compound No. 1-108, 1-[2-(1-Adamantyl)ethyl]-1-pentyl-3-[2-(4-pyridylmethyl)butyl]urea], 72 to 77 °C.
Next, `CN(CCN(CCC12CC3CC(CC(C3)C1)C2)C(=O)NCCCc1ccncc1)C(=O)CC(C)(C)C` [Compound No. 10-6, 1-[2-(1-Adamantyl)ethyl]-1-[2-[N-(3,3-dimethylbutyryl)-N-methylamino]ethyl]-3-[3-(4-pyridyl)propyl]urea]: 101.4 to 102.4 °C; `O=C(NCCCc1ccncc1)N(CCCC(F)(F)F)CCC12CC3CC(CC(C3)C1)C2` [Compound No. 1-105, 1-[2-(1-Adamantyl)ethyl]-3-[3-(4-pyridyl)propyl]-1-(4,4,4-trifluorobutyl)urea]: 142.6 to 145 °C; `CN(C)CCN(CCC12CC3CC(CC(C3)C1)C2)C(=O)NCCCc1ccncc1` [Compound No. 1-15, 1-[2-(1-Adamantyl)ethyl]-1-[2-(dimethylamino)ethyl]-3-[3-(4-pyridyl)propyl]urea]: 104 to 106.5 °C.
The compound `CCCCN(CCCC12CC3CC(CC(C3)C1)C2)C(=O)NCCCc1ccncc1` [Compound No. 1-122, 1-[3-(1-Adamantyl)propyl]-1-butyl-3-[3-(4-pyridyl)propyl]urea] gave a melting point of 79.8 to 80.4 °C.
Next, `CCN(CCCC12CC3CC(CC(C3)C1)C2)C(=O)NCCCc1ccncc1` [Compound No. 1-130, 1-[3-(1-Adamantyl)propyl]-1-ethyl-3-[3-(4-pyridyl)propyl]urea]: 97.5 to 98.2 °C; `CCCN(CC(=O)NC12CC3CC(CC(C3)C1)C2)C(=O)NCCCc1ccncc1` [Compound No. 1-132, 1-(1-Adamantyl)aminocarbonylmethyl-1-propyl-3-[3-(4-pyridyl)propyl]urea]: 132 to 132.5 °C; `CCCCN(CCC12CC3CC(CC(C3)C1)C2)C(=O)NCCCc1ccncc1` [Compound No. 1-57, 1-[2-(1-Adamantyl)ethyl]-1-butyl-3-[3-(4-pyridyl)propyl]urea]: 109.5 to 118 °C.
Next, `CCCCCN(CCC12CC3CC(CC(C3)C1)C2)C(=O)NCCNc1ccncc1` [Compound No. 1-126, 1-[2-(1-Adamantyl)ethyl]-1-pentyl-3-[2-(4-pyridylamino)ethyl]urea]: 133.9 to 134.5 °C.
Next, `O=C(NCCCc1ccncc1)N(CCC12CC3CC(CC(C3)C1)C2)CC1CCCC1` [Compound No. 1-21, 1-[2-(1-Adamantyl)ethyl]-1-cyclopentylmethyl-3-[3-(4-pyridyl)propyl]urea]: 155 to 158 °C; `Cl.Cl.NN(CCC12CC3CC(CC(C3)C1)C2)C(=O)NCCCc1ccncc1`: ~ 100 °C.
On to `O=C(N(CCCc1ccncc1)Cc1ccccc1)N(CCCc1ccccc1)C1CCCCC1` [Compound No. 1-60, 1-Cyclohexyl(phenyl)methyl-1-(3-phenylpropyl)-3-[3-(4-pyridyl)propyl]urea], for which the melting point fell in the range of 107 to 112 °C.
Next, `CCCN(CCCCC12CC3CC(CC(C3)C1)C2)C(=O)NCCCc1ccncc1` [Compound No. 1-125, 1-[4-(1-Adamantyl)butyl]-1-propyl-3-[3-(4-pyridyl)propyl]urea]: 110 to 110.5 °C; `O=C(NCCCc1ccncc1)N(CCCc1ccccc1)C(c1ccccc1)c1ccccc1` [Compound No. 1-93, 1-Diphenylmethyl-1-(3-phenylpropyl)-3-[3-(4-pyridyl)propyl]urea]: 123 to 124.8 °C.

Source of the values: patent US7923461B2, “TNF-α production inhibitors” (Santen Pharmaceutical Co., Ltd., priority 2000, dated 2011).
